From patent publication US8143279B2, “Benzimidazole-carboxamide compounds as 5-HT4 receptor agonists” (Theravance, Inc., priority 2005, dated 2012)

What was measured:
[1] = Pharmacokinetic study in the rat; format: in vivo
Procedure: Assay 6: Pharmacokinetic Study in the Rat
Aqueous solution formulations of test compounds were prepared in 0.1% lactic acid at a pH of between about 5 and about 6. Male Sprague-Dawley rats (CD strain, Charles River Laboratories, Wilmington, Mass.) were dosed with test compounds via intravenous administration (IV) at a dose of 2.5 mg/kg or by oral gavage (PO) at a dose of 5 mg/kg. The dosing volume was 1 mL/kg for IV and 2 mL/kg for PO administration. Serial blood samples were collected from animals pre-dose, and at 2 (IV only), 5, 15, and 30 min, and at 1, 2, 4, 8, and 24 hours post-dose.
Standard pharmacokinetic parameters were assessed by non-compartmental analysis (Model 201 for IV and Model 200 for PO) using WinNonlin (Version 4.0.1, Pharsight, Mountain View, Calif.). The maximum in the curve of test compound concentration in blood plasma vs. time is denoted Cmax. The area under the concentration vs. time curve from the time of dosing to the last measurable concentration (AUC(0-t)) was calculated by the linear trapezoidal rule.

[2] = Dynamic moisture sorption assessment; format: physicochemical; conditions: 25° C.
Procedure: Dynamic Moisture Sorption Assessment
Dynamic moisture sorption (DMS) assessment was performed at 25° C. using a VTI atmospheric microbalance, SGA-100 system (VTI Corp., Hialeah, Fla. 33016). A sample size of approximately 5-10 mg was used and the humidity was set at the ambient value at the start of the analysis. A typical DMS analysis consisted of three scans: ambient to 2% relative humidity (RH), 2% RH to 90% RH, 90% RH to 5% RH at a scan rate of 5% RH/step. The mass was measured every two minutes and the RH was changed to the next value (±5% RH) when the mass of the sample was stable to within 0.02% for 5 consecutive points.

[3] = Procedure: Thermogravimetric analysis (TGA) was performed using a TA Instruments Model Q-500 module. Data were collected and analyzed using TA Instruments Thermal Advantage for Q Series™ software. A sample weighing about 2 mg was placed in an aluminum pan on a platinum cradle and scanned from ambient temperature to about 300° C. with a linear heating rate of 10° C./min. The balance and furnace chambers were purged with nitrogen during use.
[4] = Solid state stability assessment; format: physicochemical; conditions: three months at 40° C. and 75% RH, open glass vials
Procedure: Solid State Stability Assessment
Samples of the crystalline compound of Form I, prepared according to the process of Example 216, were stored in multiple open glass vials at 40° C. and 75% RH. At specific intervals, the contents of a representative vial was removed and analyzed by DSC, TGA, PXRD, and by HPLC for chemical purity.

[5] = male Sprague-Dawley rats, PO 5 mg/kg, blood plasma

Compound: COC(=O)N1CCC(CN2CCC(CNC(=O)c3cccc4[nH]c(C(C)C)nc34)CC2)CC1 [Example 1, 4-(4-{[(2-isopropyl-1H-benzoimidazole-4-carbonyl)-amino]methyl}piperidin-1-ylmethyl)piperidine-1-carboxylic acid methyl ester]
- AUC(0-t) [1, 5]: 1200 ng·h/mL
- Cmax [1, 5]: 800 ng/mL
- bioavailability ([1]; male, Sprague-Dawley, plasma, PO 5 mg/kg vs IV 2.5 mg/kg, read-out: oral bioavailability (F(%))): ~75%

Compound: COC(=O)N1CCC(CN2CCC(CNC(=O)c3cccc4[nH]c(C(C)C)nc34)CC2)CC1 [Form I, 4-(4-{[(2-isopropyl-1H-benzoimidazole-4-carbonyl)-amino]methyl}piperidin-1-ylmethyl)piperidine-1-carboxylic acid methyl ester]
- weight change (moisture sorption) ([2]; 2% to 90% RH): less than 0.25%
- weight change (moisture sorption) ([2]; critical humidity range of 40% to 75% RH): less than 0.1%
- onset of degradation (TGA) [3]: above 240 °C
- change in the DSC or TGA thermograms and PXRD pattern after storage [4]: no detectable change
- chemical purity of the stored sample (HPLC) [4]: 99.5%
